Activity calls are given as the source filed them. No rule for the calls is given here.
Molecular target: Induced myeloid leukemia cell differentiation protein Mcl-1 (Homo sapiens) (UniProt Q07820)
Assay: blockers of Bid binding to Mcl-1 – biochemical, TR-FRET, dose response (AID 1418)
Conditions: Mcl-1/Bid peptide binding, TR-FRET (europium/Dy647), 2 hr

Sequence of Induced myeloid leukemia cell differentiation protein Mcl-1 (Homo sapiens) (Q07820 whole entry, looked up): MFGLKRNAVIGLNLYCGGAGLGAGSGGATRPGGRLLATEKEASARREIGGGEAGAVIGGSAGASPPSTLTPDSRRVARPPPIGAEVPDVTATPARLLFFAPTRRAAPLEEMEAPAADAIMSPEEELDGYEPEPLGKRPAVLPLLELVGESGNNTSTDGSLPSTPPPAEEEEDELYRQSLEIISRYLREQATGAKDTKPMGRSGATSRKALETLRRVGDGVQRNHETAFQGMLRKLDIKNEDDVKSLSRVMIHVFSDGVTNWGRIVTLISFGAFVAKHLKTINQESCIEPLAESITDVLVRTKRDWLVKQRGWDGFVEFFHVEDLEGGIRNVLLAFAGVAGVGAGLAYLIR

Compound | IC50
COc1ccc(N2C(=O)CC(S/C(N)=N/N=C/c3ccnc4ccccc34)C2=O)cc1 (centres undefined) | > 54 µM (inactive)
CCOC(=O)c1c(NC(=O)N/N=C/c2ccc(O)c(OC)c2)sc(C(C)=O)c1C | 0.53 µM
O=C(Nc1sc2c(c1C(=O)O)CCC2)c1ccccc1 | > 54 µM (inactive)
N=c1oc2cc(O)ccc2cc1C(=O)Nc1nc2ccccc2s1 | > 54 µM (inactive)
Oc1c(Cl)cc(Cl)c(Cl)c1Cc1c(O)c(Cl)cc(Cl)c1Cl | 0.86 µM
CCCCOc1ccc(C(=O)NCCC(=O)NCCCC(=O)OCC)cc1 | > 54 µM (inactive)
O=C(CN1C(=O)/C(=C2\SC(=S)N(C3CCS(=O)(=O)C3)C2=O)c2ccccc21)Nc1ccccc1 (centres undefined) | 0.73 µM
COc1cccc2cc(C(=O)Oc3ccc(NC(C)=O)cc3)c(=O)oc12 | > 54 µM (inactive)
CCN(CC)C(=O)CN(C)S(=O)(=O)c1cccc2nsnc12 | > 54 µM (inactive)
Cc1ccc(-n2c(C)n[nH]c2=S)cc1C | > 54 µM (inactive)
Cc1ccc(C(=O)NNC(=O)CCC(=O)Nc2cc(C)on2)cc1 | > 54 µM (inactive)
O=C(O)CCN1C(=O)/C(=C/c2cn(-c3ccccc3)nc2-c2cccs2)SC1=S | 6.79 µM
CCS(=O)(=O)NCc1ccc2c(c1)cc(C)n2C | > 54 µM (inactive)
NC(=S)n1[nH]c(-c2ccc([N+](=O)[O-])cc2)c(N=Nc2cccc([N+](=O)[O-])c2)c1=O | 2.37 µM
O=C(O)c1ccc(CS(=O)(=O)Cc2ccccc2F)o1 | > 54 µM (inactive)
COc1cc2c(cc1OC)C(Nn1cnnc1)=NC1(CCCC1)C2 | > 54 µM (inactive)
CC(/C=N\Nc1nnc2c(n1)[nH]c1c(C)cccc12)=C\c1ccco1 | 1.66 µM
O=C(Nn1cnnc1)c1ccccc1CCc1ccccc1 | > 54 µM (inactive)
COc1ccc(C2C(C#N)=C(N)OC3=C2C(=O)CCC3)cc1OC (centres undefined) | > 54 µM (inactive)
CN1CCCCC1c1ccc(-c2cccnc2)nc1 (centres undefined) | inactive

Compound | IC50
O=C(NCC1CCCO1)c1ccc(CSCc2cccc(F)c2)o1 (centres undefined) | > 54 µM (inactive)
CN(CCO)S(=O)(=O)c1ccc2c(c1)C(=NO)c1cc(S(=O)(=O)N(C)CCO)ccc1-2 | > 54 µM (inactive)
COc1ccc(Cl)cc1C(Nc1cccnc1)c1ccc2cccnc2c1O (centres undefined) | 0.62 µM
COc1ccc(CCNC(=O)COC(=O)Cc2ccccc2)cc1 | > 54 µM (inactive)
CC(C)NC(=O)c1ccc(COCC(F)(F)F)cc1 | > 54 µM (inactive)
O=C(CN1C(=O)S/C(=C\c2ccc(Cl)cc2)C1=O)NNC(=O)c1ccccc1O | 7.45 µM
NS(=O)(=O)c1ccc(CCNC(=O)C(=O)c2c[nH]c3ccccc23)cc1 | > 54 µM (inactive)
COc1ccc(-n2cc(-c3ccc(OC(F)F)cc3)[n+]3c2CCCCC3)cc1 | > 54 µM (inactive)
COc1ccc(-n2cccc2/C=C2\C(=N)N3N=C(c4ccco4)SC3=NC2=O)cc1 | 3.22 µM
COCCCNCC(=O)Nc1sc(C)c(C)c1C(=O)OC | > 54 µM (inactive)
O=C(O)COc1ccc(/C=N/NC(=O)c2ccc(-c3csc(Nc4ccc(Cl)cc4)n3)cc2)cc1 | 1.43 µM
O=C(NC1CCCCC1)C(c1ccc2ncccc2c1)N(Cc1ccccc1)C(=O)c1ccc2c(c1)OCCO2 (centres undefined) | > 54 µM (inactive)
Cc1ccc(NC(=O)CN2C(=O)S/C(=C/c3ccc(-c4cc(C(=O)O)ccc4C)o3)C2=O)cc1C | 2.69 µM
O=C(O)c1ccc2ncsc2c1 | 0.52 µM
O=C(Nc1ccc(F)cc1)Nc1ccc(Oc2ncnc3cc(Cl)ccc23)nc1 | > 54 µM (inactive)
N#C/C(=C\c1ccc(N2CCCC2)c([N+](=O)[O-])c1)c1nc2ccccc2[nH]1 | 21.6 µM
COc1cc(OC)c2c(O)c3c(c(-c4c5c(c(O)c6c(OC)cc(OC)cc46)CO[C@@H](C)[C@H]5O)c2c1)[C@H](O)[C@H](C)OC3 | 14.4 µM
NC(=S)n1[nH]c(-c2ccc([N+](=O)[O-])cc2)c(N=Nc2cccc(Cl)c2)c1=O | 0.68 µM
O=C(Nc1ccc2sccc2c1)c1ccc(Cl)s1 | > 54 µM (inactive)

Reference: PubChem BioAssay AID1418 (Emory University Molecular Libraries Screening Center, 2008)
